By EC50 is commonly meant the concentration that produces a half-maximal response.

42 molecules from patent US20260103471A1, “CYCLIC UREA THIAZOLYL COMPOUNDS FOR TREATMENT OF HSV” (Assembly Biosciences, Inc., priority 2022, published 2026) can be followed below.

The subject of one experiment is HSV-1. Nature of the experiment: HSV-1 Antiviral Assay (Vero cells, cell viability). In kind it is cell-based. Conditions: Human alphaherpesvirus 1, 96 h, Vero cells, read-out: HSV-1 EC50. A digest of the protocol:
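Vero cells (2.5×10^3/well) received 8-point 3-fold compound dilutions in 2% FBS medium (0.5% DMSO), then 80 TCID50 HSV-1. After 4 days at 37 °C, cell viability was measured by CellTiter-Glo luminescence.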

The next experiment has as its system HSV-2 G strain. Nature of the experiment: HSV-2 Antiviral Assay (Vero cells, cell viability). The format is cell-based. Conditions: for EC50: Human alphaherpesvirus 2, Vero, 120 h, Vero cells, 5 days. A digest of the protocol: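 Vero cells (1.0×10^4/well, attached overnight) given 8-point 3-fold compound dilutions (0.5% DMSO) then infected with 160 TCID50 HSV-2 G strain in 2% FBS medium for 5 days at 37 °C. Protection read as cell viability by WST-8 absorbance at 460 and 620 nm after 3 h.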

The mark [1] stands for this setting: 80 TCID50 HSV-1, 4 days, cell viability.
Setting [2] is: 160 TCID50 HSV-2 G strain, cell viability.

Each structure is given as a SMILES string. Where two headings read alike, the source gives them in different places. Bounds are passed on as bounds.

As for `Cc1nc(N2CCCN(c3ccc(-c4cc(F)ccc4F)cc3)C2=O)sc1S(C)(=O)=O` [Compound 161], the EC50 with HSV-1 (setting [1]) and in the experiment with HSV-2 G strain (setting [2]) was less than 100 nM throughout.

In the case of `Cc1nc(N2CCCN(c3ccc(-c4cc(F)ccc4F)cc3)C2=O)sc1S(=O)(=O)C1CC1` [Compound 163], the concentration for a half-maximal effect (EC50) with HSV-1 (setting [1]) and in the experiment on HSV-2 G strain (setting [2]) was 100 to 1000 nM throughout.

As for `Cc1nc(N2CCCN(c3ccc(-c4ccccc4F)cc3)C2=O)sc1S(C)(=O)=O` [Compound 164], the EC50 in the experiment with HSV-1 (setting [1]) and with HSV-2 G strain (setting [2]) was less than 100 nM in each case.

Take `O=C1N(c2ccc(-c3cc(F)ccc3F)cc2)CCCN1c1ncc(S(=O)(=O)C2CC2)s1` [Compound 166]: the EC50 in the experiment with HSV-1 (setting [1]) and in the experiment with HSV-2 G strain (setting [2]) was 100 to 1000 nM throughout.

Regarding `NS(=O)(=O)c1sc(N2CCCN(c3ccc(-c4cc(F)ccc4F)cc3)C2=O)nc1Cl` [Compound 171], the 50% effective concentration (EC50) with HSV-1 (setting [1]) and in the experiment with HSV-2 G strain (setting [2]) was less than 100 nM in each case.

As for `Cc1nc(N2CCCN(Cc3cccc(-c4cc(F)ccc4F)c3)C2=O)sc1S(N)(=O)=O` [Compound 172, 2-(3-((2′,5′-Difluoro-[1,1′-biphenyl]-3-yl)methyl)-2-oxotetrahydropyrimidin-1(2H)-yl)-4-methylthiazole-5-sulfonamide], the EC50 in the experiment with HSV-1 (setting [1]) and in the experiment on HSV-2 G strain (setting [2]) was less than 100 nM in each case.

In the case of `Cc1nc(N2CCCN(Cc3cccc(-c4ccccc4)c3)C2=O)sc1S(N)(=O)=O` [Compound 173], the EC50 with HSV-1 (setting [1]) and in the experiment on HSV-2 G strain (setting [2]) was less than 100 nM each time.

For the molecule `Cc1nc(N2CCCN(C(C)c3cccc(-c4cc(F)ccc4F)c3)C2=O)sc1S(N)(=O)=O` (stereo not shown) [Compound 174, 2-(3-(1-(2′,5′-Difluoro-[1,1′-biphenyl]-3-yl)ethyl)-2-oxotetrahydropyrimidin-1(2H)-yl)-4-methylthiazole-5-sulfonamide], the EC50 with HSV-1 (setting [1]) and in the experiment with HSV-2 G strain (setting [2]) was 1000 to 5000 nM throughout.

`CNS(=O)(=O)c1sc(N2CCCN(Cc3cccc(-c4cc(F)ccc4F)c3)C2=O)nc1C` [Compound 181]: the 50% effective concentration (EC50) in the experiment on HSV-1 (setting [1]) is less than 100 nM; in the experiment with HSV-2 G strain (setting [2]) it was 100 to 1000 nM.

In the case of `CNS(=O)(=O)c1sc(N2CCCN(Cc3cccc(-c4ccccc4)c3)C2=O)nc1C` [Compound 182], the concentration giving a half-maximal response (EC50) in the experiment with HSV-1 (setting [1]) and in the experiment on HSV-2 G strain (setting [2]) was less than 100 nM each time.

Turning to `Cc1nc(N2CCCN(c3ccc(-c4cc(F)ccc4Cl)cc3)C2=O)sc1S(N)(=O)=O` [Compound 193], the concentration giving a half-maximal response (EC50) in the experiment on HSV-1 (setting [1]) and in the experiment with HSV-2 G strain (setting [2]) was less than 100 nM in each case.

For the molecule `Cc1nc(N2CCCN(c3ccc(-c4cc(F)ccc4C(F)F)cc3)C2=O)sc1S(N)(=O)=O` [Compound 194], the EC50 in the experiment on HSV-1 (setting [1]) and with HSV-2 G strain (setting [2]) was less than 100 nM in each case.

For the molecule `COCc1ccc(F)cc1-c1ccc(N2CCCN(c3nc(C)c(S(N)(=O)=O)s3)C2=O)cc1` [Compound 209], the EC50 with HSV-1 (setting [1]) and with HSV-2 G strain (setting [2]) was less than 100 nM throughout.

As for `Cc1nc(N2CCCN(c3ccc(-c4cc(F)cc(-c5cnn(C)c5)c4F)cc3)C2=O)sc1S(N)(=O)=O` [Compound 210], the EC50 in the experiment with HSV-1 (setting [1]) and in the experiment on HSV-2 G strain (setting [2]) was less than 100 nM each time.

For `Cc1nc(N2CCCN(c3ccc(-c4cc(F)cc(-c5cncs5)c4F)cc3)C2=O)sc1S(N)(=O)=O` [Compound 211], the EC50 in the experiment with HSV-1 (setting [1]) and in the experiment on HSV-2 G strain (setting [2]) was less than 100 nM each time.

Turning to `Cc1nc(N2CCCN(c3ccc(-c4cc(F)cc(Br)c4F)cc3)C2=O)sc1S(N)(=O)=O` [Compound 212], the EC50 in the experiment on HSV-1 (setting [1]) and with HSV-2 G strain (setting [2]) was less than 100 nM in each case.

For `COc1c(F)cc(F)cc1-c1ccc(N2CCCN(c3nc(C)c(S(N)(=O)=O)s3)C2=O)cc1` [Compound 216], the half-maximal effective concentration (EC50) in the experiment on HSV-1 (setting [1]) and with HSV-2 G strain (setting [2]) was less than 100 nM each time.

As for `Cc1nc(N2CCCN(c3ccc(-c4cc(F)cc(-c5cnn(C(F)F)c5)c4F)cc3)C2=O)sc1S(N)(=O)=O` [Compound 228, 2-(3-(3′-(1-(difluoromethyl)-1H-pyrazol-4-yl)-2′,5′-difluoro-[1,1′-biphenyl]-4-yl)-2-oxotetrahydropyrimidin-1(2H)-yl)-4-methylthiazole-5-sulfonamide], the EC50 in the experiment on HSV-1 (setting [1]) and with HSV-2 G strain (setting [2]) was less than 100 nM each time.

Take `Cc1nc(N2CCCN(c3ccc(-c4cc(F)cc(F)n4)cc3)C2=O)sc1S(N)(=O)=O` [Compound 235, 2-(3-(4-(4,6-difluoropyridin-2-yl)phenyl)-2-oxotetrahydropyrimidin-1(2H)-yl)-4-methylthiazole-5-sulfonamide]: the EC50 in the experiment with HSV-1 (setting [1]) and in the experiment with HSV-2 G strain (setting [2]) was less than 100 nM each time.

In the case of `Cc1nc(N2CCCN(c3ccc(-c4cc(F)cc5nnsc45)cc3)C2=O)sc1S(N)(=O)=O` [Compound 243], the half-maximal effective concentration (EC50) with HSV-1 (setting [1]) and in the experiment with HSV-2 G strain (setting [2]) was less than 100 nM each time.

As for `Cc1nc(N2CCCN(c3ccc(-c4cc(F)cc5nonc45)cc3)C2=O)sc1S(N)(=O)=O` [Compound 245], the half-maximal effective concentration (EC50) in the experiment on HSV-1 (setting [1]) and in the experiment on HSV-2 G strain (setting [2]) was less than 100 nM throughout.

`Cc1nc(N2CCCN(c3ccc(-c4cc(F)cc5c4ccn5C)cc3)C2=O)sc1S(N)(=O)=O` [Compound 251]: the EC50 in the experiment on HSV-1 (setting [1]) and in the experiment with HSV-2 G strain (setting [2]) was less than 100 nM each time.

With `Cc1nc(N2CCCN(c3ccc(-c4cc(F)cc5ncsc45)cc3)C2=O)sc1S(N)(=O)=O` [Compound 255], the EC50 with HSV-1 (setting [1]) and with HSV-2 G strain (setting [2]) was less than 100 nM throughout.

Take `Cc1nc(N2CCCN(c3ccc(-c4cc(F)cc5nsnc45)cc3)C2=O)sc1S(N)(=O)=O` [Compound 259]: the concentration for a half-maximal effect (EC50) with HSV-1 (setting [1]) and with HSV-2 G strain (setting [2]) was less than 100 nM each time.

As for `Cc1nc(N2CCCN(c3ccc(-c4cccc5cc(C#N)sc45)cc3)C2=O)sc1S(N)(=O)=O` [Compound 274], the EC50 in the experiment on HSV-1 (setting [1]) and in the experiment with HSV-2 G strain (setting [2]) was less than 100 nM each time.

Consider `Cc1nc(N2CCCN(c3ccc(-c4cc(Cl)cc5ncsc45)cc3)C2=O)sc1S(N)(=O)=O` [Compound 277], for which the EC50 in the experiment on HSV-1 (setting [1]) and in the experiment with HSV-2 G strain (setting [2]) was less than 100 nM throughout.

Regarding `Cc1nc(N2CCCN(c3ccc(-c4cc(F)cc5c4cc(C#N)n5C)cc3)C2=O)sc1S(N)(=O)=O` [Compound 293], the EC50 with HSV-1 (setting [1]) and with HSV-2 G strain (setting [2]) was less than 100 nM in each case.

Consider `Cc1nc(N2CCCN(c3ccc(-c4snc5ccccc45)cc3)C2=O)sc1S(N)(=O)=O` [Compound 305], for which the 50% effective concentration (EC50) in the experiment on HSV-1 (setting [1]) and in the experiment on HSV-2 G strain (setting [2]) was less than 100 nM throughout.

On to `Cc1nc(N2CCCN(c3ccc(-c4nsc5ccccc45)cc3)C2=O)sc1S(N)(=O)=O` [Compound 310], for which the EC50 in the experiment with HSV-1 (setting [1]) and in the experiment with HSV-2 G strain (setting [2]) was less than 100 nM throughout.

Take `Cc1nc(N2C[C@H](C)CN(c3ccc(-c4ccccc4F)cc3)C2=O)sc1S(N)(=O)=O` [Compound 316]: the EC50 in the experiment on HSV-1 (setting [1]) and with HSV-2 G strain (setting [2]) was less than 100 nM each time.

Regarding `Cc1nc(N2CC(C)CN(c3ccc(-c4cc(F)ccc4F)cc3)C2=O)sc1S(N)(=O)=O` (stereo not shown) [Compound 318], the EC50 with HSV-1 (setting [1]) and with HSV-2 G strain (setting [2]) was less than 100 nM in each case.

As to `CC(=O)N1CC2(C1)CN(c1ccc(-c3cc(F)ccc3F)cc1)C(=O)N(c1nc(C)c(S(N)(=O)=O)s1)C2` [Compound 338], the EC50 in the experiment on HSV-1 (setting [1]) and in the experiment on HSV-2 G strain (setting [2]) was 100 to 1000 nM in each case.

As to `Cc1nc(N2CC3(COC3)CN(c3ccc(-c4cc(F)ccc4F)cc3)C2=O)sc1S(N)(=O)=O` [Compound 339, 2-(8-(2′,5′-difluoro-[1,1′-biphenyl]-4-yl)-7-oxo-2-oxa-6,8-diazaspiro[3.5]nonan-6-yl)-4-methylthiazole-5-sulfonamide], the EC50 with HSV-1 (setting [1]) and in the experiment with HSV-2 G strain (setting [2]) was less than 100 nM each time.

Regarding `Cc1nc(N2CC3(COC3)CN(c3ccc(-c4cc(F)cc(-c5cnn(C(F)F)c5)c4F)cc3)C2=O)sc1S(N)(=O)=O` [Compound 342], the 50% effective concentration (EC50) in the experiment with HSV-1 (setting [1]) and in the experiment on HSV-2 G strain (setting [2]) was less than 100 nM throughout.

Regarding `Cc1nc(N2CC(F)CN(c3ccc(-c4cc(F)ccc4F)cc3)C2=O)sc1S(N)(=O)=O` (stereo not shown) [Compound 363], the EC50 in the experiment on HSV-1 (setting [1]) and in the experiment on HSV-2 G strain (setting [2]) was less than 100 nM throughout.

Turning to `Cc1nc(N2CC(C(C)(C)F)CN(c3ccc(-c4cc(F)ccc4F)cc3)C2=O)sc1S(N)(=O)=O` (stereo not shown) [Compound 369], the concentration giving a half-maximal response (EC50) with HSV-1 (setting [1]) and in the experiment with HSV-2 G strain (setting [2]) was less than 100 nM in each case.

As to `Cc1nc(N2CCCN(c3ccc(-c4cc(F)ccc4F)cc3)C2=O)sc1S(=O)(=O)NCCCO` [Compound 417], the EC50 in the experiment with HSV-1 (setting [1]) and in the experiment on HSV-2 G strain (setting [2]) was less than 100 nM each time.

In the case of `Cc1nc(N2CC3(COC3)CN(c3ccc(-c4cc(F)cc(-c5cnn(C(F)F)c5)c4F)cc3)C2=O)sc1S(C)(=O)=O` [Compound 434], the EC50 in the experiment with HSV-1 (setting [1]) and with HSV-2 G strain (setting [2]) was less than 100 nM throughout.

For `Cc1nc(N2CC3(COC3)CN(c3ccc(-c4cc(F)ccc4F)cc3)C2=O)sc1S(C)(=O)=O` [Compound 436], the EC50 with HSV-1 (setting [1]) and in the experiment with HSV-2 G strain (setting [2]) was less than 100 nM throughout.

Take `NS(=O)(=O)c1sc(N2CCCN(c3ccc(-c4cc(F)ccc4F)cc3)C2=O)nc1CF` [Compound 441, 2-(3-(2′,5′-difluoro-[1,1′-biphenyl]-4-yl)-2-oxotetrahydropyrimidin-1(2H)-yl)-4-(fluoromethyl)thiazole-5-sulfonamide]: the half-maximal effective concentration (EC50) in the experiment on HSV-1 (setting [1]) and in the experiment on HSV-2 G strain (setting [2]) was less than 100 nM in each case.

With `Cc1nc(N2CCN(c3ccc(-c4cc(F)ccc4F)cc3)C2=O)sc1S(N)(=O)=O` [Example 104], the EC50 in the experiment with HSV-1 (4 days) is 1740 nM; in the experiment with HSV-2 G strain, more than 2000 nM.

Regarding `Cc1nc(N2CCCN(c3ccc(-c4cc(F)cc5nsnc45)cc3)C2=O)sc1S(N)(=O)=O` [Example 259], the concentration giving a half-maximal response (EC50) with HSV-1 (4 days) is 10 nM; in the experiment with HSV-2 G strain, 7 nM. Moreover, in the experiment with HSV-2 G strain (ratio of EC50 vs Example 314, assay not stated, HSV-2 values only), the “fold more active than Example 314 (5-membered ring analog)” value stood at 4 fold.
